Measurements published in ChEMBL document CHEMBL1146889, “Homo-cysteinyl peptide inhibitors of the L1 metallo-beta-lactamase, and SAR as determined by combinatorial library synthesis” (Bioorg Med Chem Lett, 2006).

Columns and labels:
[1] = target: Beta-lactamase L1 (Stenotrophomonas maltophilia) (UniProt P52700); assay: Inhibition of Stenotrophomonas maltophilia L1 metallo beta lactamase at 200 uM
Beta-lactamase L1 = Beta-lactamase L1 (Stenotrophomonas maltophilia, UniProt P52700); assay: Inhibition of Stenotrophomonas maltophilia L1 metallo beta lactamase
Sequence of Beta-lactamase L1 (P52700 whole entry): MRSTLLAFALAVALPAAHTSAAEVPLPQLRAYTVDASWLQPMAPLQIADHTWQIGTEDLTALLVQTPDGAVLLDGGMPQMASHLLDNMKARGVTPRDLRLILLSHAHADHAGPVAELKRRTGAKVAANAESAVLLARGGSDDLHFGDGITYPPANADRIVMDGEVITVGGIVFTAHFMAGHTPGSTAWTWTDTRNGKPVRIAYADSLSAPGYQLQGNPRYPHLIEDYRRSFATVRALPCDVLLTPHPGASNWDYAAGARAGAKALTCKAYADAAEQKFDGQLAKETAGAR

Sequence of Beta-lactamase L1 (Stenotrophomonas maltophilia) (P52700 34-290 limits assumed): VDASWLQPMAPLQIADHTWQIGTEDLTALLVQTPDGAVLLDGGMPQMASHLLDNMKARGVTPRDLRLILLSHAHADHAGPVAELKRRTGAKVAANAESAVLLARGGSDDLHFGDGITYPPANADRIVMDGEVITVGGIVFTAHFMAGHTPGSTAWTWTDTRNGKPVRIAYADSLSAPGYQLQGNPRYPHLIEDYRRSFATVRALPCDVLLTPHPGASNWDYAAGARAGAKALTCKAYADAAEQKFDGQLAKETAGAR

Row | Structure (SMILES) | inhibition [1] | Ki (Beta-lactamase L1)
1 | O=C(NC(CCS)C(=O)N[C@H](Cc1ccccc1)C(=O)O)c1cnc(O)c(Cl)c1 (some centres not stated) | 81% | 
2 | CCCCc1ccc(C(=O)NC(CCS)C(=O)N[C@H](Cc2ccccc2)C(=O)O)nc1 (stereo in doubt; 91) [listing 1 of 2 here] | 81% | 
3 | O=C(CCc1cccnc1)NC(CCS)C(=O)N[C@H](Cc1ccccc1)C(=O)O (some centres not stated) | 41% | 
4 | O=C(NC(CCS)C(=O)N[C@H](Cc1ccccc1)C(=O)O)c1cnccn1 (some centres not stated) | 61% | 
5 | O=C(Cc1ccccc1)NC(CCS)C(=O)N[C@H](Cc1ccccc1)C(=O)O (some centres not stated) | 61% | 
6 | O=C(NC(CCS)C(=O)N[C@H](Cc1ccccc1)C(=O)O)c1ccno1 (some centres not stated) | 61% | 
7 | O=C(NC(CCS)C(=O)N[C@H](Cc1ccccc1)C(=O)O)c1ccccc1-c1ccccc1 (some centres not stated) | 41% | 
8 | Cc1ccc(C(=O)NC(CCS)C(=O)N[C@H](Cc2ccccc2)C(=O)O)s1 (some centres not stated) | 41% | 
9 | O=C(O)c1cc(O)cc(C(=O)NC(CCS)C(=O)N[C@H](Cc2ccccc2)C(=O)O)c1 (stereo in doubt; 49) [listing 1 of 2 here] | 81% | 
10 | CCCCc1ccc(C(=O)NC(CCS)C(=O)N[C@H](Cc2ccccc2)C(=O)O)nc1 (stereo in doubt; 91) [listing 2 of 2 here] |  | 230 nM
11 | O=C(O)c1cccnc1C(=O)NC(CCS)C(=O)N[C@H](Cc1ccccc1)C(=O)O (some centres not stated) | 41% | 
12 | Cn1cccc1C(=O)NC(CCS)C(=O)N[C@H](Cc1ccccc1)C(=O)O (some centres not stated) | 41% | 
13 | Cc1cn(C)c(CC(=O)NC(CCS)C(=O)N[C@H](Cc2ccccc2)C(=O)O)c1C(=O)O (some centres not stated) | 41% | 
14 | CC(=O)Oc1ccccc1C(=O)NC(CCS)C(=O)N[C@H](Cc1ccccc1)C(=O)O (some centres not stated) | 41% | 
15 | O=C(/C=C\c1c[nH]c2ccccc12)NC(CCS)C(=O)N[C@H](Cc1ccccc1)C(=O)O (some centres not stated) | 21% | 
16 | O=C(O)c1ccc(C(=O)NC(CCS)C(=O)N[C@H](Cc2ccccc2)C(=O)O)cc1 (some centres not stated) | 61% | 
17 | O=C(NC(CCS)C(=O)N[C@H](Cc1ccccc1)C(=O)O)c1ccco1 (some centres not stated) | 41% | 
18 | O=C(NC(CCS)C(=O)N[C@H](Cc1ccccc1)C(=O)O)C1CCCC1 (some centres not stated) | 61% | 
19 | CCCCc1ccc(C(=O)NC(CCS)C(=O)N[C@H](Cc2ccccc2)C(=O)O)nc1 (stereo in doubt; 6) |  | 230 nM
20 | O=C(Cc1ccsc1)NC(CCS)C(=O)N[C@H](Cc1ccccc1)C(=O)O (some centres not stated) | 41% | 
21 | O=C(NC(CCS)C(=O)N[C@H](Cc1ccccc1)C(=O)O)c1cccs1 (some centres not stated) | 41% | 

Row | Structure (SMILES) | inhibition [1] | Ki (Beta-lactamase L1)
22 | O=C(O)CCC(=O)NC(CCS)C(=O)N[C@H](Cc1ccccc1)C(=O)O (some centres not stated) | 41% | 
23 | O=C(O)c1cc(O)cc(C(=O)NC(CCS)C(=O)N[C@H](Cc2ccccc2)C(=O)O)c1 (stereo in doubt; 96) |  | 140 nM
24 | Cc1ccc(C(=O)NC(CCS)C(=O)N[C@H](Cc2ccccc2)C(=O)O)c(O)n1 (some centres not stated) | 61% | 
25 | NC(=O)CCC(=O)NC(CCS)C(=O)N[C@H](Cc1ccccc1)C(=O)O (some centres not stated) | 41% | 
26 | Cc1occc1C(=O)NC(CCS)C(=O)N[C@H](Cc1ccccc1)C(=O)O (some centres not stated) | 41% | 
27 | O=C(NC(CCS)C(=O)N[C@H](Cc1ccccc1)C(=O)O)c1cccnc1 (some centres not stated) | 61% | 
28 | Cc1ccsc1C(=O)NC(CCS)C(=O)N[C@H](Cc1ccccc1)C(=O)O (some centres not stated) | 61% | 
29 | C=Cc1ccc(C(=O)NC(CCS)C(=O)N[C@H](Cc2ccccc2)C(=O)O)cc1 (some centres not stated) | 61% | 
30 | O=C(NC(CCS)C(=O)N[C@H](Cc1ccccc1)C(=O)O)C1CCC1 (some centres not stated) | 0% | 
31 | CC(=O)CCC(=O)NC(CCS)C(=O)N[C@H](Cc1ccccc1)C(=O)O (some centres not stated) | 41% | 
32 | CC(C)C(=O)NC(CCS)C(=O)N[C@H](Cc1ccccc1)C(=O)O (some centres not stated) | 41% | 
33 | O=C(O)c1cccc(C(=O)NC(CCS)C(=O)N[C@H](Cc2ccccc2)C(=O)O)n1 (stereo in doubt; 84) [listing 1 of 2 here] |  | 12 nM
34 | Nc1nc(CC(=O)NC(CCS)C(=O)N[C@H](Cc2ccccc2)C(=O)O)cs1 (some centres not stated) | 41% | 
35 | O=C(NC(CCS)C(=O)N[C@H](Cc1ccccc1)C(=O)O)c1cc[nH]c1 (some centres not stated) | 41% | 
36 | O=C(CC(c1ccccc1)c1ccccc1)NC(CCS)C(=O)N[C@H](Cc1ccccc1)C(=O)O (some centres not stated) | 41% | 
37 | Cc1nocc1C(=O)NC(CCS)C(=O)N[C@H](Cc1ccccc1)C(=O)O (some centres not stated) | 61% | 
38 | O=C(Cc1ccc(Br)cc1)NC(CS)C(=O)N[C@H](Cc1ccccc1)C(=O)O (some centres not stated) |  | 3670 nM
39 | NC(=O)[C@@H](Cc1ccccc1)NC(=O)C(CCS)NC(=O)c1cccc(C(=O)O)n1 (some centres not stated) |  | 26 nM
40 | O=C(Cc1c[nH]c2ccccc12)NC(CCS)C(=O)N[C@H](Cc1ccccc1)C(=O)O (some centres not stated) | 61% | 
41 | NC(=O)[C@@H](Cc1ccccc1)NC(=O)C(CCS)NC(=O)c1cc(O)cc(C(=O)O)c1 (stereo in doubt; 95) |  | 5.8 nM
42 | CCCC(=O)NC(CCS)C(=O)N[C@H](Cc1ccccc1)C(=O)O (some centres not stated) | 41% | 

Row | Structure (SMILES) | inhibition [1] | Ki (Beta-lactamase L1)
43 | O=C(Cc1cccs1)NC(CCS)C(=O)N[C@H](Cc1ccccc1)C(=O)O (some centres not stated) | 41% | 
44 | C=C(C(=O)NC(CCS)C(=O)N[C@H](Cc1ccccc1)C(=O)O)C(F)(F)F (some centres not stated) | 61% | 
45 | CCCCc1ccc(C(=O)NC(CS)C(=O)N[C@H](Cc2ccccc2)C(=O)O)nc1 (some centres not stated) |  | 880 nM
46 | O=C(NC(CCS)C(=O)N[C@H](Cc1ccccc1)C(=O)O)c1ccoc1 (some centres not stated) | 41% | 
47 | O=C(NC(CCS)C(=O)N[C@H](Cc1ccccc1)C(=O)O)c1ccccc1[N+](=O)[O-] (some centres not stated) | 61% | 
48 | NC(=O)[C@@H](Cc1ccccc1)NC(=O)C(CCS)NC(=O)c1cc(O)cc(C(=O)O)c1 (single isomer, unassigned) |  | 130 nM
49 | CC(C)CC(=O)NC(CCS)C(=O)N[C@H](Cc1ccccc1)C(=O)O (some centres not stated) | 21% | 
50 | NC(=O)[C@@H](Cc1ccccc1)NC(=O)C(CCS)NC(=O)c1cc(O)cc(C(=O)O)c1 (single isomer, unassigned; diastereomer 1) |  | 2.1 nM
51 | CC(=O)Nc1cccc(C(=O)NC(CCS)C(=O)N[C@H](Cc2ccccc2)C(=O)O)c1 (some centres not stated) | 61% | 
52 | Cc1ccc(C(=O)NC(CCS)C(=O)N[C@H](Cc2ccccc2)C(=O)O)c(Cl)n1 (some centres not stated) | 61% | 
53 | O=C(NC(CCS)C(=O)N[C@H](Cc1ccccc1)C(=O)O)c1ccc([N+](=O)[O-])c(O)c1 (some centres not stated) | 61% | 
54 | O=C(O)c1cccc(C(=O)NC(CCS)C(=O)N[C@H](Cc2ccccc2)C(=O)O)n1 (stereo in doubt; 84) [listing 2 of 2 here] | 81% | 
55 | O=C(CO)NC(CCS)C(=O)N[C@H](Cc1ccccc1)C(=O)O (some centres not stated) | 41% | 
56 | C/C=C\C=C\C(=O)NC(CCS)C(=O)N[C@H](Cc1ccccc1)C(=O)O (some centres not stated) | 41% | 
57 | O=C(NC(CCS)C(=O)N[C@H](Cc1ccccc1)C(=O)O)C1CCCCC1 (some centres not stated) | 61% | 
58 | O=C(NC(CCS)C(=O)N[C@H](Cc1ccccc1)C(=O)O)c1ccc2[nH]ccc2c1 (some centres not stated) | 61% | 
59 | O=C(O)CCCCC(=O)NC(CCS)C(=O)N[C@H](Cc1ccccc1)C(=O)O (some centres not stated) | 41% | 
60 | O=C(NC(CCS)C(=O)N[C@H](Cc1ccccc1)C(=O)O)c1cccnc1S (some centres not stated) | 61% | 
61 | O=C(/C=C\c1ccco1)NC(CCS)C(=O)N[C@H](Cc1ccccc1)C(=O)O (some centres not stated) | 21% | 
62 | CO/N=C(/C(=O)NC(CCS)C(=O)N[C@H](Cc1ccccc1)C(=O)O)c1csc(NC=O)n1 (some centres not stated) | 41% | 
63 | C=CCCC(=O)NC(CCS)C(=O)N[C@H](Cc1ccccc1)C(=O)O (some centres not stated) | 41% | 

Row | Structure (SMILES) | inhibition [1] | Ki (Beta-lactamase L1)
64 | O=C(O)c1cccc(C(=O)NC(CCS)C(=O)N[C@H](Cc2ccccc2)C(=O)O)n1 (stereo in doubt; 94) |  | 120 nM
65 | O=C(CC12CC3CC(CC(C3)C1)C2)NC(CCS)C(=O)N[C@H](Cc1ccccc1)C(=O)O (some centres not stated) | 61% | 
66 | O=C(COc1ccccc1)NC(CCS)C(=O)N[C@H](Cc1ccccc1)C(=O)O (some centres not stated) | 61% | 
67 | O=C(NC(CCS)C(=O)N[C@H](Cc1ccccc1)C(=O)O)c1ccccc1O (some centres not stated) | 41% | 
68 | O=C(NC(CCS)C(=O)N[C@H](Cc1ccccc1)C(=O)O)c1ccc([N+](=O)[O-])cc1 (some centres not stated) | 41% | 
69 | O=C(O)c1cc(O)cc(C(=O)NC(CCS)C(=O)N[C@H](Cc2ccccc2)C(=O)O)c1 (stereo in doubt; 49) [listing 2 of 2 here] |  | 140 nM
70 | O=C(NC(CCS)C(=O)N[C@H](Cc1ccccc1)C(=O)O)c1ccccc1C(=O)c1ccccc1 (some centres not stated) | 41% | 
71 | O=C(NC(CCS)C(=O)N[C@H](Cc1ccccc1)C(=O)O)c1cccc(O)c1 (some centres not stated) | 41% | 
72 | O=C(CC(O)C(=O)O)NC(CCS)C(=O)N[C@H](Cc1ccccc1)C(=O)O (some centres not stated) | 41% | 
73 | O=C(NC(CCS)C(=O)N[C@H](Cc1ccccc1)C(=O)O)c1ccc2cc[nH]c2c1 (some centres not stated) | 41% | 
74 | O=C(NC(CCS)C(=O)N[C@H](Cc1ccccc1)C(=O)O)c1cc2ccccc2s1 (some centres not stated) | 61% | 
75 | O=C(Cc1cccc2ccccc12)NC(CCS)C(=O)N[C@H](Cc1ccccc1)C(=O)O (some centres not stated) | 61% | 
76 | O=C(N[C@H](Cc1ccccc1)C(=O)O)C(CCS)NC(=O)C12CC3CC(CC(C3)C1)C2 (some centres not stated) | 61% | 
77 | O=C(Cc1c[nH]cn1)NC(CCS)C(=O)N[C@H](Cc1ccccc1)C(=O)O (some centres not stated) | 41% | 
78 | C=C(C)C(=O)NC(CCS)C(=O)N[C@H](Cc1ccccc1)C(=O)O (some centres not stated) | 61% | 
79 | CCCCCCCC(=O)NC(CCS)C(=O)N[C@H](Cc1ccccc1)C(=O)O (some centres not stated) | 41% | 
80 | Cc1ccccc1C(=O)NC(CCS)C(=O)N[C@H](Cc1ccccc1)C(=O)O (some centres not stated) | 61% | 
81 | O=C(N[C@H](Cc1ccccc1)C(=O)O)C(CCS)NC(=O)C(c1ccccc1)c1ccccc1 (some centres not stated) | 61% | 
82 | O=C(NC(CCS)C(=O)N[C@H](Cc1ccccc1)C(=O)O)c1ccsc1 (some centres not stated) | 41% | 
